ChEMBL document CHEMBL1201862, “PubChem BioAssay data set” (2004)
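In this assay, cells in 96-well plates receive the compound at five concentrations for 48 hours. Endpoints are linearly interpolated between the surrounding concentrations. GI50 marks 50% less growth.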 Calls of active or inactive are those of the source. No stated cut-off is given here; in the data, active = GI50 up to about 1.1 µM and inactive = higher.

Experiments:
Test in all cases: NCI-60 cell line screen, 48 h
[1] = tested on: MOLT-4
[2] = tested on: OVCAR-5
[3] = tested on: SK-MEL-5
[4] = tested on: RXF 393
[5] = tested on: HCT-15
[6] = tested on: COLO 205
[7] = tested on: UACC-257
[8] = tested on: HCT-116
[9] = tested on: A549
[10] = tested on: SF-295
[11] = tested on: UO-31
[12] = tested on: NCI-H460
[13] = tested on: HT-29
[14] = tested on: SK-OV-3
[15] = tested on: OVCAR-3
[16] = tested on: RPMI-8226
[17] = tested on: UACC-62
[18] = tested on: MDA-MB-435
[19] = tested on: M14
[20] = tested on: EKVX
[21] = tested on: PC-3
[22] = tested on: SNB-19
[23] = tested on: ACHN
[24] = tested on: HCC 2998
[25] = tested on: A498
[26] = tested on: CAKI-1
[27] = tested on: Malme-3M
[28] = tested on: U-251
[29] = tested on: MDA-N
[30] = tested on: SK-MEL-2
[31] = tested on: SF-268
[32] = tested on: HOP-62
[33] = tested on: SK-MEL-28
[34] = tested on: MDA-MB-231
[35] = tested on: HOP-92
[36] = tested on: BT-549
[37] = tested on: OVCAR-4
[38] = tested on: OVCAR-8
[39] = tested on: K562
[40] = tested on: Hs-578T
[41] = tested on: NCI/ADR-RES
[42] = tested on: 786-0
[43] = tested on: IGROV-1
[44] = tested on: DU-145
[45] = tested on: KM12
[46] = tested on: NCI-H23
[47] = tested on: TK-10
[48] = tested on: SNB-75
[49] = tested on: MCF7
[50] = tested on: NCI-H522
[51] = tested on: SN12C
[52] = tested on: HL-60
[53] = tested on: T47D
[54] = tested on: CCRF-CEM
[55] = tested on: SF-539
[56] = tested on: LOX IMVI
[57] = tested on: SW-620
[58] = tested on: SR

`CCOP(=O)(Nc1ccc(-c2ccccc2)cc1)OCC` was tested, and the GI50 [1] was 36.4 µM (inactive), the GI50 [2] was 77.8 µM (inactive) and the GI50 [3] was 90.2 µM (inactive). For the same molecule, the GI50 [4] was 34.6 µM (inactive), the GI50 [5] was over 100 µM and the GI50 [6] was > 100 µM (inactive). The GI50 [7] was > 100 µM (inactive), the GI50 [8] was > 100 µM (inactive) and the GI50 [9] was 81.5 µM (inactive). The GI50 [10] was > 100 µM (inactive), the GI50 [11] was 57.9 µM (inactive) and the GI50 [12] was > 100 µM (inactive). The GI50 [13] was 75.7 µM (inactive), the GI50 [14] was > 100 µM (inactive) and the GI50 [15] was 49.9 µM (inactive). The GI50 [16] was 43.3 µM (inactive), the GI50 [17] was > 100 µM (inactive) and the GI50 [18] was 91.6 µM (inactive). For the same molecule, the GI50 [19] was > 100 µM (inactive), the GI50 [20] was 65 µM (inactive) and the GI50 [21] was 86.5 µM (inactive). The GI50 [22] was > 100 µM (inactive), the GI50 [23] was > 100 µM (inactive) and the GI50 [24] was > 100 µM (inactive). The GI50 [25] was > 100 µM (inactive), the GI50 [26] was > 100 µM (inactive) and the GI50 [27] was > 100 µM (inactive). For the same molecule, the GI50 [28] was > 100 µM (inactive), the GI50 [29] was 88.9 µM (inactive) and the GI50 [30] was > 100 µM (inactive). For the same molecule, the GI50 [31] was 74.6 µM (inactive), the GI50 [32] was > 100 µM (inactive) and the GI50 [33] was > 100 µM (inactive). The GI50 [34] was > 100 µM (inactive), the GI50 [35] was 24.8 µM (inactive) and the GI50 [36] was > 100 µM (inactive). For the same molecule, the GI50 [37] was 96.4 µM (inactive), the GI50 [38] was > 100 µM (inactive) and the GI50 [39] was 74.1 µM (inactive). For the same molecule, the GI50 [40] was > 100 µM (inactive), the GI50 [41] was > 100 µM (inactive) and the GI50 [42] was > 100 µM (inactive). For the same molecule, the GI50 [43] was 71.3 µM (inactive), the GI50 [44] was > 100 µM (inactive) and the GI50 [45] was > 100 µM (inactive). The GI50 [46] was > 100 µM (inactive), the GI50 [47] was > 100 µM (inactive) and the GI50 [48] was 74.3 µM (inactive). The GI50 [49] was > 100 µM (inactive) and the GI50 [50] was 33.8 µM (inactive).

`C[C@@H](Oc1ccc(Oc2cnc3ccc(Cl)cc3n2)cc1)C(=O)O` [R(+)XK469] was tested, and the GI50 [51] was > 100 µM (inactive), the GI50 [1] was > 100 µM (inactive) and the GI50 [2] was > 100 µM (inactive). The GI50 [3] was 67.5 µM (inactive), the GI50 [4] was > 100 µM (inactive) and the GI50 [52] was 37.1 µM (inactive). For the same molecule, the GI50 [5] was over 100 µM, the GI50 [6] was 59.3 µM (inactive) and the GI50 [7] was > 100 µM (inactive). For the same molecule, the GI50 [8] was 94.2 µM (inactive), the GI50 [9] was 55.5 µM (inactive) and the GI50 [10] was > 100 µM (inactive). The GI50 [11] was > 100 µM (inactive), the GI50 [12] was 11.2 µM (inactive) and the GI50 [13] was > 100 µM (inactive). The GI50 [14] was > 100 µM (inactive), the GI50 [15] was 95.7 µM (inactive) and the GI50 [53] was > 100 µM (inactive). For the same molecule, the GI50 [17] was 66.7 µM (inactive), the GI50 [18] was > 100 µM (inactive) and the GI50 [19] was > 100 µM (inactive). The GI50 [21] was > 100 µM (inactive), the GI50 [22] was > 100 µM (inactive) and the GI50 [23] was 87.9 µM (inactive). The GI50 [25] was > 100 µM (inactive), the GI50 [54] was 97.3 µM (inactive) and the GI50 [26] was > 100 µM (inactive). For the same molecule, the GI50 [27] was > 100 µM (inactive), the GI50 [28] was > 100 µM (inactive) and the GI50 [29] was > 100 µM (inactive). For the same molecule, the GI50 [55] was > 100 µM (inactive), the GI50 [30] was > 100 µM (inactive) and the GI50 [31] was > 100 µM (inactive). For the same molecule, the GI50 [32] was 72.8 µM (inactive), the GI50 [33] was > 100 µM (inactive) and the GI50 [56] was > 100 µM (inactive). The GI50 [35] was > 100 µM (inactive), the GI50 [57] was 85.3 µM (inactive) and the GI50 [36] was > 100 µM (inactive). The GI50 [37] was > 100 µM (inactive), the GI50 [38] was > 100 µM (inactive) and the GI50 [40] was 60.1 µM (inactive). For the same molecule, the GI50 [41] was > 100 µM (inactive), the GI50 [42] was > 100 µM (inactive) and the GI50 [43] was 83 µM (inactive). For the same molecule, the GI50 [44] was > 100 µM (inactive), the GI50 [45] was 76.6 µM (inactive) and the GI50 [46] was > 100 µM (inactive). For the same molecule, the GI50 [47] was > 100 µM (inactive), the GI50 [48] was > 100 µM (inactive) and the GI50 [49] was 39 µM (inactive). For the same molecule, the GI50 [58] was > 100 µM (inactive) and the GI50 [50] was 19.1 µM (inactive).
